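Where inhibition never reached the appropriate level, the endpoint shown equals the highest concentration tested. Otherwise, values were interpolated linearly from a five-concentration, 48-hour dose response in 96-well plates. The concentration for 50% growth inhibition is given as GI50. TGI denotes the concentration required for complete inhibition of growth.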
Assays:
Assay in all cases: NCI-60 cell line screen, 48 h
[1] = tested on: MOLT-4 leukemia
[2] = tested on: SN12C renal
[3] = tested on: PC-3 prostate
[4] = tested on: A549 NSCLC
[5] = tested on: SR leukemia
[6] = tested on: A498 renal
[7] = tested on: CCRF-CEM leukemia
[8] = tested on: SK-MEL-5 melanoma
[9] = tested on: T-47D breast
[10] = tested on: NCI-H522 lung
[11] = tested on: MDA-MB-231 breast
[12] = tested on: HT29 colon
[13] = tested on: ACHN renal
[14] = tested on: 786-0 renal
[15] = tested on: HL-60(TB) leukemia
[16] = tested on: OVCAR-8 ovarian
[17] = tested on: RPMI-8226 leukemia
[18] = tested on: HOP-62 NSCLC
[19] = tested on: HCT-15 colon
[20] = tested on: SNB-19 CNS
[21] = tested on: NCI-H226 lung
[22] = tested on: RXF 393 renal
[23] = tested on: IGROV1 ovarian
[24] = tested on: SK-MEL-2 melanoma
[25] = tested on: SK-MEL-28 melanoma
[26] = tested on: UACC-62 melanoma
[27] = tested on: HS 578T breast
[28] = tested on: DU-145 prostate
[29] = tested on: BT-549 breast
[30] = tested on: EKVX NSCLC
[31] = tested on: CAKI-1 renal
[32] = tested on: OVCAR-4 ovarian
[33] = tested on: HCT-116 colon
[34] = tested on: LOX IMVI melanoma
[35] = tested on: HOP-92 NSCLC
[36] = tested on: SNB-75 CNS
[37] = tested on: NCI-H460 lung
[38] = tested on: M14 melanoma
[39] = tested on: COLO 205 colon
[40] = tested on: SF-268 CNS
[41] = tested on: MCF7 breast
[42] = tested on: U251 CNS
[43] = tested on: UACC-257 melanoma
[44] = tested on: MDA-MB-435
[45] = tested on: KM12 colon
[46] = tested on: SK-OV-3 ovarian
[47] = tested on: K-562 leukemia
[48] = tested on: SW-620 colon
[49] = tested on: TK-10 renal
[50] = tested on: SF-539 CNS
[51] = tested on: OVCAR-3 ovarian
[52] = tested on: UO-31 renal
[53] = tested on: SF-295 CNS
[54] = tested on: OVCAR-5 ovarian
[55] = tested on: HCC-2998 colon
[56] = tested on: NCI-H23 lung
[57] = tested on: MALME-3M melanoma
[58] = tested on: NCI/ADR-RES ovarian

SMILES: O=C(NCc1ccc(Cl)cc1Cl)c1ccc(NC2=C(Cl)C(=O)N(Cc3ccccc3)C2=O)cc1
- GI50 [1]: 7.17 µM
- TGI [1]: 23.9 µM
- GI50 [2]: 26.7 µM
- TGI [2]: 75.5 µM
- GI50 [3]: 14.3 µM
- TGI [3]: 31.9 µM
- GI50 [4]: 36 µM
- TGI [4]: > 100 µM
- GI50 [5]: 0.734 µM
- TGI [5]: 2.55 µM
- GI50 [6]: 28.1 µM
- TGI [6]: 56.8 µM
- GI50 [7]: 1.41 µM
- TGI [7]: 7.65 µM
- GI50 [8]: 24 µM
- TGI [8]: 66.7 µM
- GI50 [9]: 51.3 µM
- TGI [9]: > 100 µM
- GI50 [10]: 24.6 µM
- TGI [10]: > 100 µM
- GI50 [11]: 21.1 µM
- TGI [11]: 55.9 µM
- GI50 [12]: 54.3 µM
- TGI [12]: > 100 µM
- GI50 [13]: 20.8 µM
- TGI [13]: 48.1 µM
- GI50 [14]: 30.1 µM
- TGI [14]: > 100 µM
- GI50 [15]: 14.8 µM
- TGI [15]: 60.8 µM
- GI50 [16]: 12 µM
- TGI [16]: 26.5 µM
- GI50 [17]: 4.45 µM
- TGI [17]: 44.5 µM
- GI50 [18]: 36.3 µM
- TGI [18]: > 100 µM
- GI50 [19]: 32.4 µM
- TGI [19]: > 100 µM
- GI50 [20]: 44.1 µM
- TGI [20]: > 100 µM
- GI50 [21]: 26.8 µM
- TGI [21]: > 100 µM
- GI50 [22]: 18.7 µM
- TGI [22]: 52.6 µM
- GI50 [23]: 15.8 µM
- TGI [23]: > 100 µM
- GI50 [24]: 78.8 µM
- TGI [24]: > 100 µM
- GI50 [25]: 41.6 µM
- TGI [25]: > 100 µM
- GI50 [26]: 18.4 µM
- TGI [26]: 39.8 µM
- GI50 [27]: 23.4 µM
- TGI [27]: 52.7 µM
- GI50 [28]: 39.9 µM
- TGI [28]: > 100 µM
- GI50 [29]: 20.3 µM
- TGI [29]: 42 µM
- GI50 [30]: 36.4 µM
- TGI [30]: > 100 µM
- GI50 [31]: 18.2 µM
- TGI [31]: 52.4 µM
- GI50 [32]: 18.5 µM
- TGI [32]: 40.3 µM
- GI50 [33]: 53.5 µM
- TGI [33]: > 100 µM
- GI50 [34]: 7.02 µM
- TGI [34]: > 100 µM
- GI50 [35]: 10.6 µM
- TGI [35]: 27.8 µM
- GI50 [36]: 17.8 µM
- TGI [36]: 34.2 µM
- GI50 [37]: 17.8 µM
- TGI [37]: 47 µM
- GI50 [38]: 58.7 µM
- TGI [38]: > 100 µM
- GI50 [39]: 23.3 µM
- TGI [39]: 66.5 µM
- GI50 [40]: 18.9 µM
- TGI [40]: 49.1 µM
- GI50 [41]: 11.9 µM
- TGI [41]: 48.9 µM
- GI50 [42]: 15.7 µM
- TGI [42]: 34.2 µM
- GI50 [43]: 61 µM
- TGI [43]: > 100 µM
- GI50 [44]: 33.4 µM
- TGI [44]: > 100 µM
- GI50 [45]: 38.4 µM
- TGI [45]: > 100 µM
- GI50 [46]: 57.5 µM
- TGI [46]: > 100 µM
- GI50 [47]: 9.98 µM
- TGI [47]: 30.9 µM
- GI50 [48]: 26.9 µM
- TGI [48]: > 100 µM
- GI50 [49]: 28.7 µM
- TGI [49]: 91.4 µM
- GI50 [50]: 21.3 µM
- TGI [50]: 39.1 µM
- GI50 [51]: 31.9 µM
- TGI [51]: > 100 µM
- GI50 [52]: 3.41 µM
- TGI [52]: > 100 µM
- GI50 [53]: 32.8 µM
- TGI [53]: > 100 µM

SMILES: CCOC(=O)c1sc2nc(SC)nc3c2c1NCN3C1CC1
- TGI [2]: > 100 µM
- TGI [3]: > 100 µM
- TGI [4]: > 100 µM
- TGI [54]: > 100 µM
- TGI [6]: > 100 µM
- TGI [7]: > 100 µM
- TGI [8]: > 100 µM
- TGI [55]: > 100 µM
- TGI [9]: > 100 µM
- TGI [11]: > 100 µM
- TGI [12]: > 100 µM
- TGI [13]: > 100 µM
- TGI [14]: > 100 µM
- TGI [16]: > 100 µM
- TGI [17]: > 100 µM
- TGI [18]: > 100 µM
- TGI [19]: > 100 µM
- TGI [20]: > 100 µM
- TGI [21]: > 100 µM
- TGI [22]: > 100 µM
- TGI [56]: > 100 µM
- TGI [23]: > 100 µM
- TGI [24]: > 100 µM
- TGI [57]: > 100 µM
- TGI [25]: > 100 µM
- TGI [26]: > 100 µM
- TGI [27]: > 100 µM
- TGI [58]: > 100 µM
- TGI [28]: > 100 µM
- TGI [29]: > 100 µM
- TGI [31]: > 100 µM
- TGI [32]: > 100 µM
- TGI [33]: > 100 µM
- TGI [34]: > 100 µM
- TGI [35]: > 100 µM
- TGI [36]: > 100 µM
- TGI [37]: > 100 µM
- TGI [38]: > 100 µM
- TGI [39]: > 100 µM
- TGI [40]: > 100 µM
- TGI [42]: > 100 µM
- TGI [43]: > 100 µM
- TGI [44]: > 100 µM
- TGI [45]: > 100 µM
- TGI [46]: > 100 µM
- TGI [49]: > 100 µM
- TGI [51]: > 100 µM
- TGI [52]: > 100 µM
- TGI [53]: > 100 µM
